Laboratory results reported in ChEMBL document CHEMBL5376020, “Synthesis and evaluation of WK-X-34 derivatives as P-glycoprotein (P-gp/ABCB1) inhibitors for reversing multidrug resistance” (RSC Med Chem, 2024).
pIC50: −log10 of the molar value. Activity calls are given as the source filed them. The rule behind the calls is not given here.

Columns and labels:
[1] = test system: SW620/AD300; test: Reversal of doxorubicin-induced multidrug resistance in human SW620/AD300 cells measured after 48 hrs by CCK-8 method; assay type: functional, cell-based; details: SW620/AD300, 48 h
[2] = test system: SW-620; test: Reversal of doxorubicin-induced multidrug resistance in human SW620 cells measured after 48 hrs by CCK-8 method; assay type: functional, cell-based; details: SW-620, 48 h
[3] = Octanol/water partition coefficient, log P of the compound; assay type: physicochemical
[4] = test system: SW-620; test: Reversal fold, ratio of Doxorubicin IC50 to test compound IC50 for reversal of doxorubicin-induced multi-drug resistance in human SW620 cells measured after 48 hrs by CCK-8 method; assay type: functional
[5] = test system: SW620/AD300; test: Reversal fold, ratio of Doxorubicin IC50 to test compound IC50 for reversal of doxorubicin-induced multi-drug resistance in human SW620/AD300 cells measured after 48 hrs by CCK-8 method; assay type: functional
[6] = test system: SW-620; test: Cytotoxicity against human SW620 cells assessed as cell mortality rate at 5 uM measured after 48 hrs by CCK-8 method relative to control; assay type: functional
[7] = test system: SW620/AD300; test: Cytotoxicity against human overexpressing P-gp SW620/AD300 cells assessed as cell mortality rate at 5 uM measured after 48 hrs by CCK-8 method relative to control; assay type: functional
[8] = target: ATP-dependent translocase ABCB1 (Homo sapiens, UniProt P08183); test: Inhibition of P-gp efflux in human SW620/AD300 cells assessed as increase in accumulation of Rh123 by measuring fluorescence intensity at 5.0 uM incubated for 4 hrs followed by Rh123 addition measured after 30 mins by flow cytometric analysis; assay type: cell-based; details: sw620/ad300, 4.5 h
[9] = test system: SW620/AD300; test: Induction of doxorubicin induced apoptosis in human SW620/AD300 cells assessed as necrotic cells at 5 uM incubated for 48 hrs in presence of doxorubicin by annexin V-FITC and PI staining based flow cytometry analysis (reference value: 0.59%); assay type: functional
[10] = test system: SW620/AD300; test: Induction of doxorubicin induced apoptosis in human SW620/AD300 cells assessed as early apoptotic cells at 5 uM incubated for 48 hrs in presence of doxorubicin by annexin V-FITC and PI staining based flow cytometry analysis (reference value: 4.55%); assay type: functional
[11] = test system: SW620/AD300; test: Induction of doxorubicin induced apoptosis in human SW620/AD300 cells assessed as late apoptotic cells at 5 uM incubated for 48 hrs in presence of doxorubicin by annexin V-FITC and PI staining based flow cytometry analysis (reference value: 2.07%); assay type: functional
[12] = test system: SW620/AD300; test: Induction of doxorubicin induced apoptosis in human SW620/AD300 cells assessed as viable cells at 5 uM incubated for 48 hrs in presence of doxorubicin by annexin V-FITC and PI staining based flow cytometry analysis (reference value: 92.8%); assay type: functional; details: read-out: Activity
[13] = test system: SW620/AD300; test: Induction of doxorubicin induced apoptosis in human SW620/AD300 cells assessed as late apoptotic cells at 2.5 uM incubated for 48 hrs in presence of doxorubicin by annexin V-FITC and PI staining based flow cytometry analysis (reference value: 2.07%); assay type: functional
[14] = test system: SW620/AD300; test: Downregulation of P-gp expression level in human SW620/AD300 cells at 2 to 5 uM measured after 24 hrs by qPCR analysis; assay type: functional, cell-based; details: dose 2-5 µM
[15] = test system: SW620/AD300; test: Induction of doxorubicin induced apoptosis in human SW620/AD300 cells assessed as viable cells at 2.5 uM incubated for 48 hrs in presence of doxorubicin by annexin V-FITC and PI staining based flow cytometry analysis (reference value: 92.8%); assay type: functional; details: read-out: Activity
[16] = test system: SW620/AD300; test: Induction of doxorubicin induced apoptosis in human SW620/AD300 cells assessed as early apoptotic cells at 2.5 uM incubated for 48 hrs in presence of doxorubicin by annexin V-FITC and PI staining based flow cytometry analysis (reference value: 4.55%); assay type: functional
[17] = test system: SW620/AD300; test: Induction of doxorubicin induced apoptosis in human SW620/AD300 cells assessed as necrotic cells at 2.5 uM incubated for 48 hrs in presence of doxorubicin by annexin V-FITC and PI staining based flow cytometry analysis (reference value: 0.59%); assay type: functional
[18] = test system: SW620/AD300; test: Downregulation of P-gp expression level in human SW620/AD300 cells at upto 50 uM measured after 24 hrs by Western blot analysis; assay type: functional, cell-based
[19] = test system: SW620/AD300; test: Downregulation of P-gp expression level in human SW620/AD300 cells at 5 to 10 uM measured after 24 hrs by Western blot analysis; assay type: functional, cell-based; details: dose 5-10 µM

Sequence of ATP-dependent translocase ABCB1 (P08183 whole entry): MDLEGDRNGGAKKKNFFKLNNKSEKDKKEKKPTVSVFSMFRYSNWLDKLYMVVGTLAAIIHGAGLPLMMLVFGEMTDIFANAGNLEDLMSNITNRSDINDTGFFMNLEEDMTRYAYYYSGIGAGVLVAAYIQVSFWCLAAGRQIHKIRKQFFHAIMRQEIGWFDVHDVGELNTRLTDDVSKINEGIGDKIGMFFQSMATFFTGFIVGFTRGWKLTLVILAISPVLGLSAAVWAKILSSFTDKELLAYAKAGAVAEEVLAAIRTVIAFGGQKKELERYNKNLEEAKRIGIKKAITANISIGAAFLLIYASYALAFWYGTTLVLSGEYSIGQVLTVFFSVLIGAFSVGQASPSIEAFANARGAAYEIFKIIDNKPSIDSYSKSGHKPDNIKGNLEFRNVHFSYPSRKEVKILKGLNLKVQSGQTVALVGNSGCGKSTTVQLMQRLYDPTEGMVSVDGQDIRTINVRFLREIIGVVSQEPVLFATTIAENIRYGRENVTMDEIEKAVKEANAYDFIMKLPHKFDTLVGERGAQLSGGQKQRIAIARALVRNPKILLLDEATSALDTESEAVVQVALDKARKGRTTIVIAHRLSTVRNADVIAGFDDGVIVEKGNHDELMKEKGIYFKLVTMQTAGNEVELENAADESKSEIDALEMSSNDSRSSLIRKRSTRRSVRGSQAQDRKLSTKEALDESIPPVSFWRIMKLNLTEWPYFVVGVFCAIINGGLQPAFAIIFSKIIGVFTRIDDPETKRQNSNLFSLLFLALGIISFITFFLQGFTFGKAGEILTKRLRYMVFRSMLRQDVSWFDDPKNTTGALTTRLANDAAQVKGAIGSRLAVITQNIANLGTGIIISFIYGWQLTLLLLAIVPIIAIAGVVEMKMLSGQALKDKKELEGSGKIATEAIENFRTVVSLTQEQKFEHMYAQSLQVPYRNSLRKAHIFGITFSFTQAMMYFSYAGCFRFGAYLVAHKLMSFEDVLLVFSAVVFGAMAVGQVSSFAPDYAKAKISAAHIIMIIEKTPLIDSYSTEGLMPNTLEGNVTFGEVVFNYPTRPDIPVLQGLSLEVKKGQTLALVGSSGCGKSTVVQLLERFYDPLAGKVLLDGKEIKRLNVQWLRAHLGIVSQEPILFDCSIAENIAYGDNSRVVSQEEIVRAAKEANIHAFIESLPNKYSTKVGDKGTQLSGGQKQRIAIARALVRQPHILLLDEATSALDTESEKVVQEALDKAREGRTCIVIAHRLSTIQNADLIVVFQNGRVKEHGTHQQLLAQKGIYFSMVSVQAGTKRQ

Structure (SMILES)	pIC50 [1]	pIC50 [2]	logP [3]	Ratio IC50 [4]	Ratio IC50 [5]	mortality at 5 µM [6] [%]	mortality at 5 µM [7] [%]	inhibition (INH) [8]	Activity [9] [%]	Activity [10] [%]	Activity [11] [%]	viability at 5 µM [12] [%]	Activity [13] [%]	Activity [14]	viability at 2.5 µM [15] [%]	Activity [16] [%]	Activity [17] [%]	Activity [18]	Activity [19]
COc1cc2c(cc1OC)CN(CCc1ccc(NC(=O)c3ccccc3NC(=O)c3ccc(N)cc3)cc1)CC2	6.18	6.76	5.23	1.5	15.9														
COc1cc2c(cc1OC)CN(CCc1ccc(NC(=O)c3ccccc3NC(=O)CCNC(=O)CC34CC5CC(CC(C5)C3)C4)cc1)CC2	6.42	6.47	6.89	0.7	27.7	< 6	< 6												
COc1cc2c(cc1OC)CN(CCc1ccc(NC(=O)c3ccccc3NC(=O)c3ccc(NC(=O)CC45CC6CC(CC(C6)C4)C5)cc3)cc1)CC2	6.30	6.31	8.48	0.5	21.1	< 6	< 6												
COc1ccc(C(=O)Nc2ccccc2C(=O)Nc2ccc(CCN3CCc4cc(OC)c(OC)cc4C3)cc2)cc1OC	6.65	7.20	5.85	4	45.9	9	9	Active	0.56	38.5	3.62	57.3							
COc1cc2c(cc1OC)CN(CCc1ccc(NC(=O)c3ccccc3NC(=O)CC34CC5CC(CC(C5)C3)C4)cc1)CC2	6.69	6.55	7.65	0.9	51.4	< 2	< 2	Active	1.13	24.7	3.93	70.2	3.15	inactive	78.9	17.7	0.29	inactive	inactive
COc1cccc2c1C(=O)c1c(O)c3c(c(O)c1C2=O)C[C@@](O)(C(=O)CO)C[C@@H]3O[C@H]1C[C@H](N)[C@H](O)[C@H](C)O1 [DOXORUBICIN]	4.98	6.59		1	1														
COc1cc2c(cc1OC)CN(CCc1ccc(NC(=O)c3ccccc3NC(=O)c3ccc(C(=O)N4CCN(C(=O)CC56CC7CC(CC(C7)C5)C6)CC4)cc3)cc1)CC2	6.87	6.86	8.04	1.9	78.6	< 2	< 2	Active	1.17	52.1	5.15	42.1	1.16	inactive	47.8	50.8	0.22	inactive	inactive
COc1cc2c(cc1OC)CN(CCc1ccc(NC(=O)c3ccccc3NC(=O)c3ccccc3N)cc1)CC2	6.14	6.64	5.78	1.1	14.6														
COc1cc2c(cc1OC)CN(CCc1ccc(NC(=O)c3ccccc3NC(=O)C34CC5CC(CC(C5)C3)C4)cc1)CC2	6.17	6.84	6.83	1.8	15.7	< 2	< 2	Active	0.29	36.1	4.45	59.2	0.96	inactive	76.3	22.7	0.08	Active	inactive
COc1cc2c(cc1OC)CN(CCc1ccc(NC(=O)c3ccccc3NC(=O)c3ccc(C(=O)O)cc3)cc1)CC2	5.12	6.42	3.16	0.7	1.4														
COC(=O)c1ccc(C(=O)Nc2ccccc2C(=O)Nc2ccc(CCN3CCc4cc(OC)c(OC)cc4C3)cc2)cc1	6.00	6.87	5.77	1.9	10.4														
COc1ccc(CCN(C)CCCC(C#N)(c2ccc(OC)c(OC)c2)C(C)C)cc1OC (stereo not given) [VERAPAMIL]		6.85																	
COc1cc2c(cc1OC)CN(CCc1ccc(NC(=O)c3ccccc3NC(=O)c3ccc(C(=O)NCCNC(=O)CC45CC6CC(CC(C6)C4)C5)cc3)cc1)CC2	6.09	6.86	7.9	1.8	13	< 6	< 6												
